row,glass transition temperature [°C],Structure (SMILES)
1,340.00,*C(=O)Nc1ccc(S(=O)(=O)c2ccc(NC(=O)c3ccc4c(c3)C(=O)N(c3ccc(-c5sc(-c6ccc(N7C(=O)c8ccc(*)cc8C7=O)cc6)c(-c6ccccc6)c5-c5ccccc5)cc3)C4=O)cc2)cc1 (repeat unit)
2,364.00,*c1ccc(-c2ccc(-c3ccc(-n4c(=O)c5c(C(F)(F)F)c6c(=O)n(*)c(=O)c6c(C(F)(F)F)c5c4=O)cc3)cc2)cc1 (repeat unit)
3,52.00,*C(F)(F)C(=O)NCCCCCCNS(*)(=O)=O (repeat unit)
4,-74.50,*CCOCCOC(=O)CCCCCCCCC(=O)O* (repeat unit)
5,46.00,*Oc1ccc(CC(NC(=O)CCc2ccc(OC(=O)CCCCCCC(*)=O)cc2)C(=O)OC(C)CC)cc1 (repeat unit)
6,135.50,*c1cc(Br)c(-c2c(Br)cc(N3C(=O)c4ccc(-c5ccc6c(c5)C(=O)N(*)C6=O)cc4C3=O)cc2C(=O)OCCCCCCCC)c(C(=O)OCCCCCCCC)c1 (repeat unit)
7,155.00,*C1C(=O)OC(=O)C1C1C2CC(C(=O)OCCOCC)C(C2)C1* (repeat unit)
8,81.00,*Oc1ccc(C(c2ccc(OC(=O)Nc3ccc(Cc4ccc(NC(*)=O)cc4)cc3)cc2)(C(F)(F)F)C(F)(F)F)cc1 (repeat unit)
9,96.00,*Oc1c(C)cc(-c2cc(C)c(OC(=O)CCCCCC(*)=O)c(C)c2)cc1C (repeat unit)
10,251.00,*c1ccc(Oc2ccc(N3C(=O)c4ccc(Oc5ccc6c(c5)C(=O)N(*)C6=O)cc4C3=O)cc2Br)c(Br)c1 (repeat unit)
11,6.50,*CCCCCCCC(=O)OC1COC(*)OC1 (repeat unit)
12,207.00,*CC(C)(C)C1C(=O)N(c2ccccc2C)C(=O)C1* (repeat unit)
13,223.00,*/C(=C/c1cc(OC)c(/C=C(\c2ccccc2)c2ccc(-c3ccc(*)cc3)cc2)cc1OC)c1ccccc1 (repeat unit)
14,147.00,*OS(=O)(=O)c1cccc(S(=O)(=O)Oc2ccc(C(C)(CC)c3ccc(*)cc3)cc2)c1 (repeat unit)
15,275.00,*c1cccc(N2C(=O)c3cccc(Oc4ccc(-c5ccc(Oc6cccc7c6C(=O)N(*)C7=O)cc5)cc4)c3C2=O)c1 (repeat unit)
16,254.00,*c1ccc(C(=O)c2ccc(Oc3ccc(-c4nn(*)c(=O)c5ccccc45)cc3Br)cc2)cc1 (repeat unit)
17,260.00,*Oc1ccc(C(=O)Nc2ccc(S(=O)(=O)c3ccc(NC(=O)c4ccc(Oc5ccc(C(=O)c6ccc(S(=O)(=O)c7ccc(C(=O)c8ccc(*)cc8)cc7)cc6)cc5)cc4)cc3)cc2)cc1 (repeat unit)
18,157.00,*c1ccc(Oc2ccc(Oc3ccc(N4C(=O)CC(=O)N(*)C4=S)cc3)cc2)cc1 (repeat unit)
19,113.00,*CCCCOC(=O)Nc1ccc(-c2ccc(NC(=O)OCCCCn3c4ccccc4c4cc(/C=C(\C#N)C(=O)OCCCCCCOC(=O)/C(C#N)=C/c5ccc6c(c5)c5ccccc5n6*)ccc43)c(C)c2)cc1C (repeat unit)
20,226.70,*c1ccc(Sc2ccc(Sc3ccc(Sc4ccc(N5C(=O)c6ccc(-c7cccc8c7C(=O)N(*)C8=O)cc6C5=O)cc4)cc3)cc2)cc1 (repeat unit)

# More lines, now with the values behind:
row,Structure (SMILES),glass transition temperature [°C]
1,*C(=O)c1ccc2c(c1)C(=O)N(c1cccc(OCCOc3cccc(N4C(=O)c5ccc(*)cc5C4=O)c3)c1)C2=O (repeat unit),191.00
2,*C#Cc1cccc(C#C[SiH](*)C)c1 (repeat unit),72.00
3,*c1cccc(P(=O)(c2ccccc2)c2cccc(N3C(=O)c4ccc(NC(=O)OCCOc5ccc(C(c6ccc(OCCOC(=O)Nc7ccc8c(c7)C(=O)N(*)C8=O)cc6)(C(F)(F)F)C(F)(F)F)cc5)cc4C3=O)c2)c1 (repeat unit),214.00
4,*CCN(*)C(C)=O (repeat unit),80.00
5,*c1cccc(Oc2cccc(Oc3cccc(N4C(=O)c5ccc(-c6cccc7c6C(=O)N(*)C7=O)cc5C4=O)c3)c2)c1 (repeat unit),213.00
6,*Oc1ccc(CC(NC(=O)CCc2ccc(OC(=O)COCCOCC(*)=O)cc2)C(=O)OCCCCCCCCCCCC)cc1 (repeat unit),17.00
7,*CC(*)(C)C(=O)OCCCCCCCCCCCCCCC(=O)NC1OC(COC(C)=O)C(OC2OC(COC(C)=O)C(OC(C)=O)C(OC(C)=O)C2OC(C)=O)C(OC(C)=O)C1OC(C)=O (repeat unit),95.20
8,*CCCOC(=O)CCCC(=O)O* (repeat unit),-33.00
9,*c1ccc(Oc2ccc(C(=O)c3ccc(Oc4ccc(-c5c6c(c(*)c7ccccc57)C(=O)N(c5ccccc5-c5ccccc5)C6=O)cc4)cc3)cc2)cc1 (repeat unit),245.00
10,*Oc1ccc(C(C)(C)c2ccc(C(C)(C)c3ccc(Oc4ccc(C(=O)Nc5ccc(Cc6ccc(NC(=O)c7ccc(*)cc7)cc6)cc5)cc4)cc3)cc2)cc1 (repeat unit),162.00
11,*c1ccc2c(c1)C(=O)N(c1ccc(Oc3ccccc3Oc3ccc(N4C(=O)c5ccc(C(*)(C(F)(F)F)C(F)(F)F)cc5C4=O)cc3C(F)(F)F)c(C(F)(F)F)c1)C2=O (repeat unit),247.00
12,*c1ccc(-c2cc(-c3ccc(-c4ccccc4)cc3)cc(-c3ccc(N4C(=O)c5ccc(NC(=O)Nc6ccc(Oc7ccc(NC(=O)Nc8ccc9c(c8)C(=O)N(*)C9=O)cc7)cc6)cc5C4=O)cc3)n2)cc1 (repeat unit),241.00
13,*Oc1c(Cl)cc(*)cc1Cl (repeat unit),176.82
14,*OP(=O)(Oc1ccccc1)Oc1ccc(-c2ccc(*)cc2)cc1 (repeat unit),112.00
15,*C/C=C(\C)C(C)S(*)(=O)=O (repeat unit),73.00
16,*c1ccc(Oc2cccc(Oc3ccc(N4C(=O)c5ccc(Oc6ccc(C(C)(C)c7ccc(Oc8ccc9c(c8)C(=O)N(*)C9=O)cc7)cc6)cc5C4=O)cc3)c2)cc1 (repeat unit),246.00
17,*C(=O)c1ccc2c(c1)C(=O)N(c1ccc(C(C)(C)c3cccc(C(C)(C)c4ccc(N5C(=O)c6ccc(*)cc6C5=O)cc4)c3)cc1)C2=O (repeat unit),316.50
18,*c1ccc2c(c1)C(=O)N(c1ccc(N(C)CCN(C)c3ccc(N4C(=O)c5ccc(C(*)(C(F)(F)F)C(F)(F)F)cc5C4=O)cc3)cc1)C2=O (repeat unit),227.00
19,*OC1CCC(OC(*)=O)CC1 (repeat unit),138.00
20,*CC(*)c1ccccc1C(=O)OCCN(C)C (repeat unit),69.00
21,*c1nc(-c2ccccc2)nc(N(CCCCCCCCCCN(*)c2ccccc2)c2ccccc2)n1 (repeat unit),62.00
22,*c1cccc(P(=O)(c2ccccc2)c2cccc(-n3c(=O)c4cc5c(=O)n(*)c(=O)c5cc4c3=O)c2)c1 (repeat unit),331.00
23,*c1ccc2c(c1)C(=O)N(c1ccc(OCCN(CCOc3ccc(N4C(=O)c5ccc(C(*)(C(F)(F)F)C(F)(F)F)cc5C4=O)cc3)c3ccccc3)cc1)C2=O (repeat unit),170.00
